Broadly, the EC50 is the concentration needed to bring the measured effect to its halfway point. A high value points to lower potency in that assay.

In this test the target is Phospholipid-transporting ATPase ABCA1 (Mus musculus, UniProt P41233). Put plainly: Induction of ABCA1-mediated [3H]cholesterol efflux in mouse RAW 264.7 macrophages after 24 hrs.
Sequence of Phospholipid-transporting ATPase ABCA1 (P41233 whole entry): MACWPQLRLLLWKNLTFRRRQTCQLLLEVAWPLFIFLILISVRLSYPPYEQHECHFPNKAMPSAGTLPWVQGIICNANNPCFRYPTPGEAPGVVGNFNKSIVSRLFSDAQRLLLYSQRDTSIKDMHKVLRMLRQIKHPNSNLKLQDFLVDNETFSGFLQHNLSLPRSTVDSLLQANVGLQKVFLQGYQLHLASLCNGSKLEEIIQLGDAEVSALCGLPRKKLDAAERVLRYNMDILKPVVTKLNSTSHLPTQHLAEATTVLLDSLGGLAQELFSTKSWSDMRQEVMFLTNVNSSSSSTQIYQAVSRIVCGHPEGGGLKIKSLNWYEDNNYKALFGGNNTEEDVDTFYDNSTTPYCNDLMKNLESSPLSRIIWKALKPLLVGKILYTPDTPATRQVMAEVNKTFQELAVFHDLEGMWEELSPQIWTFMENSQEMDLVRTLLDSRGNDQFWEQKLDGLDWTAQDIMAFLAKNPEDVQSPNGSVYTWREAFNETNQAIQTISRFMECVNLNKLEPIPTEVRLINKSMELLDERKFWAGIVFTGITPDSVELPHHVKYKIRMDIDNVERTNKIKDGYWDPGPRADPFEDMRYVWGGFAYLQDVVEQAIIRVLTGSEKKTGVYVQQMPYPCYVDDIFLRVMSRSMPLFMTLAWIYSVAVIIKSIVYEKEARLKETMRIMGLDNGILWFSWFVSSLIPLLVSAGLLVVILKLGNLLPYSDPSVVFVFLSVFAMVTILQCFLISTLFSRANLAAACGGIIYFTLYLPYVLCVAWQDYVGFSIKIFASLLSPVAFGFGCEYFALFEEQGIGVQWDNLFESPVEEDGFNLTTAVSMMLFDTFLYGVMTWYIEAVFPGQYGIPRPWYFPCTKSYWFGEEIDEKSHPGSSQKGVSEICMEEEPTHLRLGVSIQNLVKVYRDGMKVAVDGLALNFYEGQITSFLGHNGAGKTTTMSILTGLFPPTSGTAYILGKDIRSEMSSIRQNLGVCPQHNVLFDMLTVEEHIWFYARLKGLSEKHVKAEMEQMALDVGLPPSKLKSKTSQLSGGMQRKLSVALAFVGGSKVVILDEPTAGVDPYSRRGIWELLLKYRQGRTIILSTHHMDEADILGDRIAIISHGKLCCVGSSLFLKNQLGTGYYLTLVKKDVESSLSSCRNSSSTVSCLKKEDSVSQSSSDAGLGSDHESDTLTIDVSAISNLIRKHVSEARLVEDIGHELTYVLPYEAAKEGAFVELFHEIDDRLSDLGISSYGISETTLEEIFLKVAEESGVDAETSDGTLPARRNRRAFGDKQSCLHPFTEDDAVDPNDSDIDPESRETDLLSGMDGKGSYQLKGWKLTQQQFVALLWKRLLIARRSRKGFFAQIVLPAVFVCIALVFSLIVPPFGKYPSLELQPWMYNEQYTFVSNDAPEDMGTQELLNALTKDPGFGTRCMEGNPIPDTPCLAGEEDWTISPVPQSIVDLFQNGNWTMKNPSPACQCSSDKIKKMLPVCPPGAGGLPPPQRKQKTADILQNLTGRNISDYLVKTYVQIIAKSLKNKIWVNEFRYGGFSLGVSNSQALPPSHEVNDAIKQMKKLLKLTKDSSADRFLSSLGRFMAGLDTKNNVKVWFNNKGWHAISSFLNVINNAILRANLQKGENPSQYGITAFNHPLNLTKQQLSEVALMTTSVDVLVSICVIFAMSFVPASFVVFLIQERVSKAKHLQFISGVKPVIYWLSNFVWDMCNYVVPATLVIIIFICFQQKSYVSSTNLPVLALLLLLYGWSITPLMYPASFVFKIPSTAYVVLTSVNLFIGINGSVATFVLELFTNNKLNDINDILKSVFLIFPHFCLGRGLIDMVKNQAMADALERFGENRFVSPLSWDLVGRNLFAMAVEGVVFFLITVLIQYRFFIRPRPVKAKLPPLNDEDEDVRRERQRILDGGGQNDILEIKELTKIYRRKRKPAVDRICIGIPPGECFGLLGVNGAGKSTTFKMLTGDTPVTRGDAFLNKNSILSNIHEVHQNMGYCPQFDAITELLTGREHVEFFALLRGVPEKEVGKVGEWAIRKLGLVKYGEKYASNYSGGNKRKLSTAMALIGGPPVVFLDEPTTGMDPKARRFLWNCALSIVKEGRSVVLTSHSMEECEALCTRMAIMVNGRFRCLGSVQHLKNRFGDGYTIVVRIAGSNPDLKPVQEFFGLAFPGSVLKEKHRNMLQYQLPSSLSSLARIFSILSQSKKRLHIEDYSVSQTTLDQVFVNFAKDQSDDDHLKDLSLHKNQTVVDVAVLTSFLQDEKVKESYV
In turn, `C=CCCCC[C@H](NC(=O)[C@@H]1CCCN1C(C)=O)C(=O)N[C@@H](CC(C)C)C(=O)N[C@@H](CC(=O)O)C(=O)N[C@@H](CCC(=O)O)C(=O)N[C@@H](Cc1ccccc1)C(=O)N[C@@H](CCCN=C(N)N)C(=O)N[C@@H](CCC(=O)O)C(=O)N[C@@H](CCCCN)C(=O)N[C@@H](CC(C)C)C(=O)N[C@@H](CC(N)=O)C(=O)N[C@@H](CCC(=O)O)C(=O)N[C@@H](CCC(=O)O)C(=O)N[C@@H](CC(C)C)C(=O)N[C@@H](CCC(=O)O)C(=O)N[C@@H](C)C(=O)N[C@@H](CC(C)C)C(=O)N[C@@H](CCCCN)C(=O)N[C@@H](CCC(N)=O)C(=O)N[C@@H](CCCCN)C(=O)N[C@@H](CC(C)C)C(=O)N[C@@H](CCCCN)C(N)=O` returned an EC50 above 100 µM. The value for `C=CCCCC[C@H](NC(=O)[C@@H](NC(=O)[C@@H]1CCCN1C(C)=O)C(C)C)C(=O)N[C@@H](CC(=O)O)C(=O)N[C@@H](CCC(=O)O)C(=O)N[C@@H](Cc1ccccc1)C(=O)N[C@@H](CCCNC(=N)N)C(=O)N[C@@H](CCC(=O)O)C(=O)N[C@@H](CCCCN)C(=O)N[C@@H](CC(C)C)C(=O)N[C@@H](CC(N)=O)C(=O)N[C@@H](CCC(=O)O)C(=O)N[C@@H](CCC(=O)O)C(=O)N[C@@H](CC(C)C)C(=O)N[C@@H](CCC(=O)O)C(=O)N[C@@H](C)C(=O)N[C@@H](CC(C)C)C(=O)N[C@@H](CCCCN)C(=O)N[C@@H](CCC(N)=O)C(=O)N[C@@H](CCCCN)C(=O)N[C@@H](CC(C)C)C(=O)N[C@@H](CCCCN)C(N)=O` was above 100 µM. Then `C=CCCCC[C@H](NC(=O)[C@H](CCC(=O)O)NC(=O)[C@H](CC(=O)O)NC(=O)[C@H](CC(C)C)NC(=O)[C@@H](NC(=O)[C@@H]1CCCN1C(C)=O)C(C)C)C(=O)N[C@@H](CCCNC(=N)N)C(=O)N[C@@H](CCC(=O)O)C(=O)N[C@@H](CCCCN)C(=O)N[C@@H](CC(C)C)C(=O)N[C@@H](CC(N)=O)C(=O)N[C@@H](CCC(=O)O)C(=O)N[C@@H](CCC(=O)O)C(=O)N[C@@H](CC(C)C)C(=O)N[C@@H](CCC(=O)O)C(=O)N[C@@H](C)C(=O)N[C@@H](CC(C)C)C(=O)N[C@@H](CCCCN)C(=O)N[C@@H](CCC(N)=O)C(=O)N[C@@H](CCCCN)C(=O)N[C@@H](CC(C)C)C(=O)N[C@@H](CCCCN)C(N)=O`, with above 100 µM; and `C=CCCCC[C@H](NC(=O)[C@H](CCC(=O)O)NC(=O)[C@H](CCCN=C(N)N)NC(=O)[C@H](Cc1ccccc1)NC(=O)[C@H](CCC(=O)O)NC(=O)[C@H](CC(=O)O)NC(=O)[C@H](CC(C)C)NC(=O)[C@@H](NC(=O)[C@@H]1CCCN1C(C)=O)C(C)C)C(=O)N[C@@H](CC(C)C)C(=O)N[C@@H](CC(N)=O)C(=O)N[C@@H](CCC(=O)O)C(=O)N[C@@H](CCC(=O)O)C(=O)N[C@@H](CC(C)C)C(=O)N[C@@H](CCC(=O)O)C(=O)N[C@@H](C)C(=O)N[C@@H](CC(C)C)C(=O)N[C@@H](CCCCN)C(=O)N[C@@H](CCC(N)=O)C(=O)N[C@@H](CCCCN)C(=O)N[C@@H](CC(C)C)C(=O)N[C@@H](CCCCN)C(N)=O`, with above 100 µM; and `C=CCCCC[C@H](NC(=O)[C@H](CCC(=O)O)NC(=O)[C@H](CCC(=O)O)NC(=O)[C@H](CC(N)=O)NC(=O)[C@H](CC(C)C)NC(=O)[C@H](CCCCN)NC(=O)[C@H](CCC(=O)O)NC(=O)[C@H](CCCNC(=N)N)NC(=O)[C@H](Cc1ccccc1)NC(=O)[C@H](CCC(=O)O)NC(=O)[C@H](CC(=O)O)NC(=O)[C@H](CC(C)C)NC(=O)[C@@H](NC(=O)[C@@H]1CCCN1C(C)=O)C(C)C)C(=O)N[C@@H](CCC(=O)O)C(=O)N[C@@H](C)C(=O)N[C@@H](CC(C)C)C(=O)N[C@@H](CCCCN)C(=O)N[C@@H](CCC(N)=O)C(=O)N[C@@H](CCCCN)C(=O)N[C@@H](CC(C)C)C(=O)N[C@@H](CCCCN)C(N)=O`, with above 100 µM. The value for `C=CCCCC[C@H](NC(=O)[C@H](C)NC(=O)[C@H](CCC(=O)O)NC(=O)[C@H](CC(C)C)NC(=O)[C@H](CCC(=O)O)NC(=O)[C@H](CCC(=O)O)NC(=O)[C@H](CC(N)=O)NC(=O)[C@H](CC(C)C)NC(=O)[C@H](CCCCN)NC(=O)[C@H](CCC(=O)O)NC(=O)[C@H](CCCNC(=N)N)NC(=O)[C@H](Cc1ccccc1)NC(=O)[C@H](CCC(=O)O)NC(=O)[C@H](CC(=O)O)NC(=O)[C@H](CC(C)C)NC(=O)[C@@H](NC(=O)[C@@H]1CCCN1C(C)=O)C(C)C)C(=O)N[C@@H](CCCCN)C(=O)N[C@@H](CCC(N)=O)C(=O)N[C@@H](CCCCN)C(=O)N[C@@H](CC(C)C)C(=O)N[C@@H](CCCCN)C(N)=O` was above 100 µM; that for `C=CCCCC[C@H](NC(=O)[C@H](CCC(N)=O)NC(=O)[C@H](CCCCN)NC(=O)[C@H](CC(C)C)NC(=O)[C@H](C)NC(=O)[C@H](CCC(=O)O)NC(=O)[C@H](CC(C)C)NC(=O)[C@H](CCC(=O)O)NC(=O)[C@H](CCC(=O)O)NC(=O)[C@H](CC(N)=O)NC(=O)[C@H](CC(C)C)NC(=O)[C@H](CCCCN)NC(=O)[C@H](CCC(=O)O)NC(=O)[C@H](CCCNC(=N)N)NC(=O)[C@H](Cc1ccccc1)NC(=O)[C@H](CCC(=O)O)NC(=O)[C@H](CC(=O)O)NC(=O)[C@H](CC(C)C)NC(=O)[C@@H](NC(=O)[C@@H]1CCCN1C(C)=O)C(C)C)C(=O)N[C@@H](CC(C)C)C(=O)N[C@@H](CCCCN)C(N)=O` was 213 µM; that for `C=CCCCC[C@H](NC(=O)[C@H](CCCCN)NC(=O)[C@H](CCC(N)=O)NC(=O)[C@H](CCCCN)NC(=O)[C@H](CC(C)C)NC(=O)[C@H](C)NC(=O)[C@H](CCC(=O)O)NC(=O)[C@H](CC(C)C)NC(=O)[C@H](CCC(=O)O)NC(=O)[C@H](CCC(=O)O)NC(=O)[C@H](CC(N)=O)NC(=O)[C@H](CC(C)C)NC(=O)[C@H](CCCCN)NC(=O)[C@H](CCC(=O)O)NC(=O)[C@H](CCCNC(=N)N)NC(=O)[C@H](Cc1ccccc1)NC(=O)[C@H](CCC(=O)O)NC(=O)[C@H](CC(=O)O)NC(=O)[C@H](CC(C)C)NC(=O)[C@@H](NC(=O)[C@@H]1CCCN1C(C)=O)C(C)C)C(=O)N[C@@H](CCCCN)C(N)=O` was above 100 µM. The compound `C=CCCCC[C@H](NC(=O)[C@H](CCCCN)NC(=O)[C@H](CCC(=O)O)NC(=O)[C@H](CCCN=C(N)N)NC(=O)[C@H](Cc1ccccc1)NC(=O)[C@H](CCC(=O)O)NC(=O)[C@H](CC(=O)O)NC(=O)[C@H](CC(C)C)NC(=O)[C@@H](NC(=O)[C@@H]1CCCN1C(C)=O)C(C)C)C(=O)N[C@@H](CC(N)=O)C(=O)N[C@@H](CCC(=O)O)C(=O)N[C@@H](CCC(=O)O)C(=O)N[C@@H](CC(C)C)C(=O)N[C@@H](CCC(=O)O)C(=O)N[C@@H](C)C(=O)N[C@@H](CC(C)C)C(=O)N[C@@H](CCCCN)C(=O)N[C@@H](CCC(N)=O)C(=O)N[C@@H](CCCCN)C(=O)N[C@@H](CC(C)C)C(=O)N[C@@H](CCCCN)C(N)=O` registered a concentration giving a half-maximal response (EC50) above 100 µM. The value for `C=CCCCC[C@@H](NC(=O)[C@@H]1CCCN1C(C)=O)C(=O)N[C@@H](CC(C)C)C(=O)N[C@@H](CC(=O)O)C(=O)N[C@@H](CCC(=O)O)C(=O)N[C@@H](Cc1ccccc1)C(=O)N[C@@H](CCCN=C(N)N)C(=O)N[C@@H](CCC(=O)O)C(=O)N[C@@H](CCCCN)C(=O)N[C@@H](CC(C)C)C(=O)N[C@@H](CC(N)=O)C(=O)N[C@@H](CCC(=O)O)C(=O)N[C@@H](CCC(=O)O)C(=O)N[C@@H](CC(C)C)C(=O)N[C@@H](CCC(=O)O)C(=O)N[C@@H](C)C(=O)N[C@@H](CC(C)C)C(=O)N[C@@H](CCCCN)C(=O)N[C@@H](CCC(N)=O)C(=O)N[C@@H](CCCCN)C(=O)N[C@@H](CC(C)C)C(=O)N[C@@H](CCCCN)C(N)=O` was above 100 µM; that for `C=CCCCC[C@@H](NC(=O)[C@@H](NC(=O)[C@@H]1CCCN1C(C)=O)C(C)C)C(=O)N[C@@H](CC(=O)O)C(=O)N[C@@H](CCC(=O)O)C(=O)N[C@@H](Cc1ccccc1)C(=O)N[C@@H](CCCNC(=N)N)C(=O)N[C@@H](CCC(=O)O)C(=O)N[C@@H](CCCCN)C(=O)N[C@@H](CC(C)C)C(=O)N[C@@H](CC(N)=O)C(=O)N[C@@H](CCC(=O)O)C(=O)N[C@@H](CCC(=O)O)C(=O)N[C@@H](CC(C)C)C(=O)N[C@@H](CCC(=O)O)C(=O)N[C@@H](C)C(=O)N[C@@H](CC(C)C)C(=O)N[C@@H](CCCCN)C(=O)N[C@@H](CCC(N)=O)C(=O)N[C@@H](CCCCN)C(=O)N[C@@H](CC(C)C)C(=O)N[C@@H](CCCCN)C(N)=O` was above 100 µM. Then `C=CCCCC[C@@H](NC(=O)[C@H](CCC(=O)O)NC(=O)[C@H](CC(=O)O)NC(=O)[C@H](CC(C)C)NC(=O)[C@@H](NC(=O)[C@@H]1CCCN1C(C)=O)C(C)C)C(=O)N[C@@H](CCCN=C(N)N)C(=O)N[C@@H](CCC(=O)O)C(=O)N[C@@H](CCCCN)C(=O)N[C@@H](CC(C)C)C(=O)N[C@@H](CC(N)=O)C(=O)N[C@@H](CCC(=O)O)C(=O)N[C@@H](CCC(=O)O)C(=O)N[C@@H](CC(C)C)C(=O)N[C@@H](CCC(=O)O)C(=O)N[C@@H](C)C(=O)N[C@@H](CC(C)C)C(=O)N[C@@H](CCCCN)C(=O)N[C@@H](CCC(N)=O)C(=O)N[C@@H](CCCCN)C(=O)N[C@@H](CC(C)C)C(=O)N[C@@H](CCCCN)C(N)=O`, with above 100 µM; and `C=CCCCC[C@@H](NC(=O)[C@H](CCC(=O)O)NC(=O)[C@H](CCCNC(=N)N)NC(=O)[C@H](Cc1ccccc1)NC(=O)[C@H](CCC(=O)O)NC(=O)[C@H](CC(=O)O)NC(=O)[C@H](CC(C)C)NC(=O)[C@@H](NC(=O)[C@@H]1CCCN1C(C)=O)C(C)C)C(=O)N[C@@H](CC(C)C)C(=O)N[C@@H](CC(N)=O)C(=O)N[C@@H](CCC(=O)O)C(=O)N[C@@H](CCC(=O)O)C(=O)N[C@@H](CC(C)C)C(=O)N[C@@H](CCC(=O)O)C(=O)N[C@@H](C)C(=O)N[C@@H](CC(C)C)C(=O)N[C@@H](CCCCN)C(=O)N[C@@H](CCC(N)=O)C(=O)N[C@@H](CCCCN)C(=O)N[C@@H](CC(C)C)C(=O)N[C@@H](CCCCN)C(N)=O`, with above 100 µM. Then `C=CCCCC[C@@H](NC(=O)[C@H](CCCCN)NC(=O)[C@H](CCC(=O)O)NC(=O)[C@H](CCCNC(=N)N)NC(=O)[C@H](Cc1ccccc1)NC(=O)[C@H](CCC(=O)O)NC(=O)[C@H](CC(=O)O)NC(=O)[C@H](CC(C)C)NC(=O)[C@@H](NC(=O)[C@@H]1CCCN1C(C)=O)C(C)C)C(=O)N[C@@H](CC(N)=O)C(=O)N[C@@H](CCC(=O)O)C(=O)N[C@@H](CCC(=O)O)C(=O)N[C@@H](CC(C)C)C(=O)N[C@@H](CCC(=O)O)C(=O)N[C@@H](C)C(=O)N[C@@H](CC(C)C)C(=O)N[C@@H](CCCCN)C(=O)N[C@@H](CCC(N)=O)C(=O)N[C@@H](CCCCN)C(=O)N[C@@H](CC(C)C)C(=O)N[C@@H](CCCCN)C(N)=O`, with above 100 µM.
